Holding throughout (assay type): physicochemical
The nature of data set [1]: cyclization temperature Tcyc by Differential Thermal Analysis (DTA). The conditions noted are these: for Tcyc: table, DTA; for cyclization temperature Tcyc: determined using DTA. The method, then:
The cyclization temperature Tcyc is determined, for example, by means of Differential Thermal Analysis DTA. In the case of the preferred exothermic cyclization, it corresponds to the maximum of the rearrangement signal. The heating rate in the DTA measurements is, for example, 10° C. per minute. Under these conditions, the width at half height of the rearrangement signal is preferably less than 10° C., particularly preferably less than 7° C., very particularly preferably less than 5° C. For the purposes of the invention, the width at half height is the width of the signal at a height halfway between the base and the apex.
cyclization temperature Tcyc: 123° C. (determined using DTA, see description. This also applies to the other examples).

Data set [2] can be described thus: absorption spectra measured in solution (λmax, ε, shift Δλmax after thermal cyclization). Also on record: λmax: unit: nm (local absorption maximum, 350–470 nm range); Δλmax: unit: nm; negative = hypsochromic shift. The conditions noted are these: for Δλmax: shift after thermal cyclization; for λmax: solvent not given; for absorption shift after cyclization Δλmax: after thermal cyclization, negative = hypsochromic. The text has this: Preference is given to dyes in which the shift in the absorption maximum induced by thermal cyclization, Δλmax, is 25 nm or more, preferably ≧35 nm, in particular ≧45 nm. If a preferably hypsochromic shift occurs, then Δλmax is negative. For the purposes of the invention, the absorption maximum is the local maximum in the range from 350 to 470 nm; it is not necessarily the absolute maximum in the UV/VIS spectrum in the range from 190 to 800 nm.
The light-absorbent compounds preferably have a molar extinction coefficient ε of >20 000 l/mol cm, preferably >30 000 l/mol cm, particularly preferably >40 000 l/mol cm, very particularly preferably >50 000 l/mol cm, at the absorption maximum λmax.
The absorption spectra are, for example, measured in solution.

A short description of data set [3]: solubility in TFP (2,2,3,3-tetrafluoropropanol).
Data set [4] can be described thus: film formed by the dye (spin coating). The text has this: Apart from the abovementioned optical properties, the writeable information layer comprising light-absorbent organic substances has to have a substantially amorphous morphology to keep the noise signal during writing or reading as small as possible. For this reason, it is particularly preferred that crystallization of the light-absorbent substances be prevented in the application of the substances by spin coating from a solution, by vapour deposition and/or sublimation during subsequent covering with metallic or dielectric layers under reduced pressure.
(§1) A 2% strength by weight solution of the dye in 2,2,3,3-tetrafluoropropanol was prepared at room temperature. This solution was applied by means of spin coating to a fused silica substrate. The resulting thickness of the dye film was about 150 nm. This specimen was heated from 50° C. to 133° C. in a stream of helium at a mean heating rate of 3 K/min and subsequently cooled to 81° C. at a mean cooling rate of 1.4 K/min. During the heating and cooling phases, transmission spectra of the specimen in the wavelength range from 200 nm to 1700 nm were recorded. The change in the optical properties resulting from the ring-closure reaction can be observed by looking at the transmission spectra at different temperatures.

The nature of data set [5]: index of refraction of spin-coated dye film over temperature cycle. The method, then:
as §1
The absorption band in the region of 450 nm obviously disappears virtually completely and leads to a change in the absorption properties which can be utilized in the wavelength range from 400 to 500 nm for the optical storage and reproduction of data, for example when a laser beam having an appropriate pulse duration and pulse energy heats the dye layer to above 133° C. Furthermore, each absorption also produces a dispersion of the index of refraction over the wavelength. This leads, in particular on the flanks of the absorption bands, to indices of refraction which are lower (short wavelength flank) or higher (long wavelength flank) than 1.4-1.6, which represents the usual range for colourless organic materials. For example, the index of refraction of the dye at 405 nm is 1.17 at the beginning of the temperature cycle and that at 515 nm is […]. After the temperature cycle, when the absorption band has disappeared virtually completely, the decolourized dye has an index of refraction in the range from 1.4 to 1.6 in the visible spectrum. This change in the index of refraction can likewise be utilized for the optical storage and reproduction of data, for example when a laser beam having an appropriate pulse duration and pulse energy heats the dye layer to above 133° C. […]

Setting [6] is: molar extinction coefficient at λmax.

Molecules are shown by their SMILES. Bounds are passed on as bounds.

With `Cc1ccc(N/C=C\c2c(C#N)c(=O)oc3ccccc23)cc1C` [Example 11], the Tcyc in data set [1] amounted to 157 °C. Moreover, in data set [2] (table), the ε is 30 820, the Δλmax entry is listed as “>|100|*” and the λmax came to 467.
For `CCCCNC1=C(C=C(C#N)C#N)CCC1` [Example 18] the same measures were 174 °C, 37 840, −70 and 440.
Compound `COc1ccc(Nc2c(C=C(C#N)C#N)c(=O)oc3ccccc23)cc1OC` [Example 16] gave a Tcyc in data set [1] of 167 °C. In data set [2] (table), the ε is recorded as 26 670, the Δλmax was −38 and the λmax was determined as 386.
Taken in the same sequence, the figures for `CCCCN/C=C\c1c(C(=O)OC(C)C)c(=O)oc2cc(OC)c(OC)cc12` [Example 13] were 81 °C, 24 580, −50 and 422.
For `N#Cc1c(/C=C\Nc2ccccc2)c2ccc(-n3nccn3)cc2oc1=O` [Example 15] the same measures were 146 °C, 38 540, “>|100|*” and 468.
Taken in the same sequence, the figures for `CCOC(=O)/C(C#N)=C/C=C1\NCCc2ccccc21` [Example 5] were 124 °C, 53 320, −46 and 440.
As for `CCOC(=O)/C(C#N)=C/C1=C(Nc2ccc(OC)cc2)CCCC1` [Example 17], the Tcyc in data set [1] is 176 °C. In addition, in data set [2] (table), the ε is recorded as 33 200, the Δλmax is reported as −65 and the λmax is 445.
In the case of `CCc1ccc2c(NC(C)C)c(/C=C\C(=O)OC)c(=O)oc2c1` [Example 3], the “cyclization temperature Tcyc” value in data set [1] came to 206 °C. In data set [2], the “absorption shift after cyclization Δλmax” value is recorded as −20 nm and the “λmax (methanol)” value amounted to 359 nm. Besides, the ε in data set [2] (setting [6]) is recorded as 20 700 l/mol cm. In data set [3], this compound gave a solubility of 1%. In addition, the film result in data set [4] was “glass-like film”.
Take `CCOC(=O)/C(C#N)=C/C=C1\NCCc2cc(OC)c(OC)cc21` [Example 1]: in data set [1], the “cyclization temperature Tcyc” value is 123 °C. The “absorption shift after cyclization Δλmax” value in data set [2] was −49 nm. The “λmax (methanol)” value in data set [2] is recorded as 447 nm. In addition, the ε in data set [2] (setting [6]) is recorded as 47 560 l/mol cm. The solubility in data set [3] is above 2%. For the same compound, the film result in data set [4] is listed as “glass-like film”. For the same compound, the index of refraction in data set [5] (after the temperature cycle (50 to 133° C.), visible spectrum, decolourized dye) is 1.4-1.6; in data set [5] (at 405 nm, beginning of the temperature cycle, about 150 nm film on fused silica) it was 1.17; in data set [5] (at 515 nm, beginning of the temperature cycle), 2.17.
As to `CCOC(=O)/C(C#N)=C/C(C#N)=C1\NC(CC)Cc2cc(N(C)C)ccc21` (centres unmarked) [Example 9], the Tcyc in data set [1] came out at 207 °C. Also, in data set [2] (table), the ε was 63 160, the Δλmax was −53 and the λmax came out at 452.
Taken in the same sequence, the figures for `CCc1ccc(N/C=C(/Br)c2c(C#N)c(=O)[nH]c3ccc(CC)cc23)cc1` [Example 12] were 161 °C, 32 140, “>|100|*” and 463.
For `CCC1Cc2cc(OC)ccc2/C(=C/C=C(\C#N)C(=O)OCCOC)N1` (centres unmarked) [Example 8], in data set [1], the Tcyc amounted to 212 °C. For the same compound, in data set [2] (table), the ε is reported as 37 520, the Δλmax is reported as −50 and the λmax amounted to 444.
`CCCCNC1=C(/C=C(/C#N)C(=O)OCC)CCC1` [Example 4]: the “cyclization temperature Tcyc” value in data set [1] worked out at 198 °C. For the same compound, in data set [2], the “absorption shift after cyclization Δλmax” value was −72 nm and the “λmax (methanol)” value came out at 441 nm. For the same compound, the ε in data set [2] (setting [6]) is 36 910 l/mol cm. Moreover, in data set [3], the solubility was above 2%. In addition, the film entry in data set [4] is “glass-like film”.
Compound `Cc1ccc(S(=O)(=O)OCc2c(/C=C\NC3CCCCC3)c3ccccc3oc2=O)cc1` [Example 14] returned a Tcyc in data set [1] of 175 °C. Also, in data set [2] (table), the ε is on record as 21 750, the Δλmax is −15 and the λmax is listed as 368.

Values taken from patent publication US20020197561A1, “Optical data carrier comprising a cyclizable compound in the information layer” (priority 2001, published 2002).
